Molecular target: Indoleamine 2,3-dioxygenase 1 (Homo sapiens, UniProt P14902)
Assay: IDO Kynurenine Assay
Conditions: 25 °C
Experimental: Human IDO1/HEK293 cells were seeded at 10,000 cells per 50 uL per well with RPMI/phenol red free media contains 10% FBS in a 384-well black wall clear bottom tissue culture plate (Matrix Technologies LLC) 125 nL of certain concentration of compound was then added to each well using ECHO liquid handling systems. The cells were incubated for 20 hours in 37° C. incubator with 5% CO2. The compound treatments were stopped by adding Trichloroacetic Acid (Sigma-Aldrich) to a final concentration at 0.2%. The cell plate was further incubated at 50° C. for 30 minute. The equal volume supernatant (20 uL) and 0.2% (w/v) Ehrlich reagent (4-dimethylaminobenzaldehyde, Sigma-Aldrich) in glacial acetic acid were mixed in a new clear bottom 384-well plate. This plate was then incubated at room temperature for 30 minute. The absorbance at 490 nm was measured on Envision plate reader.

Chain of Indoleamine 2,3-dioxygenase 1 (P14902 whole entry): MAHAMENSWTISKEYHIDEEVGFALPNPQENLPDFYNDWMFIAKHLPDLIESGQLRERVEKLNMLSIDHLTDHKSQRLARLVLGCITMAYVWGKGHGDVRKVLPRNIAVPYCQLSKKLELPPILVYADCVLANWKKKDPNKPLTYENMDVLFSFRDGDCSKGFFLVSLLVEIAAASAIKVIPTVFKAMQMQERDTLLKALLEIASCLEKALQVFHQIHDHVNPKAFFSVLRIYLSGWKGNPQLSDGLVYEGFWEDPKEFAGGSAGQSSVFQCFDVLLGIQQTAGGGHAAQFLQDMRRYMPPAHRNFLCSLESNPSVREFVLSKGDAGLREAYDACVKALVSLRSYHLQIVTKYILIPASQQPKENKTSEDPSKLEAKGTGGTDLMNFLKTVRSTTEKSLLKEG

Cc1cc(NC(=O)Nc2cc([C@H]3C[C@H]3C(=O)O)ccc2N(CC(C)C)C2CCCCC2)on1 [US9675571, 129]
EC50: 0.5 nM

From BindingDB's records for patent US9675571 (Bristol-Myers Squibb, 2017)
